Measurements taken from patent publication US20070117743A1, “New antitumoral compounds” (priority 2003, published 2007).
Like-named read-outs stand apart in the source and are kept apart here. Where a SMILES comes first, the peptide text is derived from it. Bridges are numbered along the chain shown (N, C = ends). [ ]: non-standard residue; d: D form. The star is where a group is joined. d(aIle) = CC[C@H](C)[C@@H](N)C(=O)O; d(aThr) = C[C@@H](O)[C@@H](N)C(=O)O; Hexanoyl(5-Me) = CC(C)CCCC(=O)*; Orn = NCCC[C@H](N)C(=O)O; Dhb = C/C=C(\N)C(=O)O

Legend:
Type in all cases: cell-based, human
LoVo-Dox = experiment: SRB colorimetric assay of cell growth and viability, LoVo-Dox; details: 48 hours exposure; for CC50: read-out: LC50 LOVO-DOX
Excerpt: (§1) The finality of this assay is to interrupt the growth of a “in vitro” tumor cell culture by means a continued exhibition of the cells to the sample to be testing.
A colorimetric type of assay, using sulforhodamine B (SRB) reaction has been adapted for a quantitative measurement of cell growth and viability [following the technique described by Philip Skehan, et al. (1990), New colorimetric cytotoxicity assay for anticancer drug screening, J. Natl. Cancer Inst., 82:1107-1112].
(§2) This form of the assay employs 96 well cell culture microplates of 9 mm diameter (Faircloth, 1988; Mosmann, 1983). Most of the cell lines are obtained from American Type Culture Collection (ATCC) derived from different human cancer types.
(§3) Cells are maintained in RPMI 1640 10% FBS, supplemented with 0.1 g/l penicillin and 0.1 g/l streptomycin sulfate and then incubated at 37° C., 5% CO2 and 98% humidity. For the experiments, cells were harvested from subconfluent cultures using trypsin and resuspended in fresh medium before plating.
(§4) Cells are seeded in 96 well microtiter plates, at 5×10^3 cells per well in aliquots of 195 μL medium, and they are allowed to attach to the plate surface by growing in drug free medium for 18 hours. Afterward, samples are added in aliquots of 5 μL in a ranging from 10 to 10^−8 μg/mL, dissolved in DMSO:EtOH:PBS (0.5:0.5:99). After 48 hours exposure, the antitumor effect are measured by the SRB methodology: cells are fixed by adding 50 μL of cold 50% (wt/vol) trichloroacetic acid (TCA) and incubating for 60 minutes at 4° C. Plates are washed with deionized water and dried. One hundred μL of SRB solution (0.4% wt/vol in 1% acetic acid) is added to each microtiter well and incubated for 10 minutes at room temperature. Unbound SRB is removed by washing with 1% acetic acid. Plates are air dried and bound stain is solubilized with Tris buffer. Optical densities are read on a automated spectrophotometric plate reader at a single wavelength of 490 nm.
(§5) The values for mean+/− SD of data from triplicate wells are calculated. Some parameters for cellular responses can be calculated: GI=growth inhibition, TGI=total growth inhibition (cytostatic effect) and LC=cell killing (cytotoxic effect).

DU-145 = experiment: SRB colorimetric assay of cell growth and viability, DU-145; details: 48 hours exposure
Excerpt: as §1, §2, §3, §4, §5

K-562 = experiment: SRB colorimetric assay of cell growth and viability, K-562; details: 48 hours exposure; for CC50: read-out: LC50 K-562
Excerpt: as §1, §2, §3, §4, §5

SK-MEL-28 = experiment: SRB colorimetric assay of cell growth and viability, SK-MEL-28; details: 48 hours exposure; for CC50: read-out: LC50 MEL-28
Excerpt: as §1, §2, §3, §4, §5

HeLa-APL = experiment: SRB colorimetric assay of cell growth and viability, HeLa-APL; details: 48 hours exposure; for CC50: read-out: LC50 HELA-APL
Excerpt: as §1, §2, §3, §4, §5

HT-29 = experiment: SRB colorimetric assay of cell growth and viability, HT-29; details: 48 hours exposure; for GI50: read-out: GI50 HT-29; for CC50: read-out: LC50 HT-29
Excerpt: as §1, §2, §3, §4, §5

HeLa = experiment: SRB colorimetric assay of cell growth and viability, HeLa; details: 48 hours exposure; for CC50: read-out: LC50 HELA
Excerpt: as §1, §2, §3, §4, §5

A-549 = experiment: SRB colorimetric assay of cell growth and viability, A-549; details: 48 hours exposure; for GI50: read-out: GI50 A-549; for CC50: read-out: LC50 A-549
Excerpt: as §1, §2, §3, §4, §5

IGROV-1 = experiment: SRB colorimetric assay of cell growth and viability, IGROV-1; details: 48 hours exposure
Excerpt: as §1, §2, §3, §4, §5

LoVo = experiment: SRB colorimetric assay of cell growth and viability, LoVo; details: 48 hours exposure; for CC50: read-out: LC50 LOVO
Excerpt: as §1, §2, §3, §4, §5

IGROV-ET = experiment: SRB colorimetric assay of cell growth and viability, IGROV-ET; details: 48 hours exposure; for CC50: read-out: LC50 IGROV-ET
Excerpt: as §1, §2, §3, §4, §5

PANC-1 = experiment: SRB colorimetric assay of cell growth and viability, PANC-1; details: 48 hours exposure; for CC50: read-out: LC50 PANC-1
Excerpt: as §1, §2, §3, §4, §5

C/C=C1\NC(=O)[C@H](Cc2ccccc2)NC(=O)[C@@H](C(C)C)NC(=O)[C@@H]([C@@H](C)CC)NC(=O)[C@H](NC(=O)[C@H](NC(=O)[C@H](CCCN)NC(=O)[C@H]2CCCN2C(=O)[C@H](NC(=O)[C@@H](NC(=O)[C@H](CCCN)NC(=O)CCCC(C)C)C(C)C)C(C)C)[C@@H](C)CC)[C@@H](C)OC(=O)[C@H](C(C)C)NC1=O [Compound 57, [Orn^12, noD-Val^13]-KF] ({Hexanoyl(5-Me)}-[Orn]V[dV][dP][Orn][d(aIle)][d(aThr)][d(aIle)][dV]F[Dhb]V; ester 7-C)
GI50 (LoVo-Dox; SRB): ≥ 7.18 µM
TGI LOVO-DOX (LoVo-Dox; SRB): 7.18E−06 Molar
CC50 (LoVo-Dox; SRB): ≥ 7.18 µM
GI50 (DU-145): ≥ 7.18 µM
LC50 (concentration causing 50% net cell kill) (DU-145): ≥ 7.18 µM
TGI DU-145 (DU-145): 7.18E−06 Molar
GI50 (K-562; SRB): ≥ 7.18 µM
TGI K-562 (K-562; SRB): 7.18E−06 Molar
CC50 (K-562; SRB): ≥ 7.18 µM
GI50 (SK-MEL-28): ≥ 7.18 µM
TGI MEL-28 (SK-MEL-28): 7.18E−06 Molar
CC50 (SK-MEL-28): ≥ 7.18 µM
GI50 (HeLa-APL; SRB): ≥ 7.18 µM
TGI HELA-APL (HeLa-APL; SRB): 7.18E−06 Molar
CC50 (HeLa-APL; SRB): ≥ 7.18 µM
TGI HT-29 (HT-29; SRB): 7.18E−06 Molar
GI50 (HT-29; SRB): ≥ 7.18 µM
CC50 (HT-29; SRB): ≥ 7.18 µM
GI50 (HeLa; SRB): ≥ 7.18 µM
TGI HELA (HeLa; SRB): 7.18E−06 Molar
CC50 (HeLa; SRB): ≥ 7.18 µM
TGI A-549 (A-549; SRB): 7.18E−06 Molar
GI50 (A-549; SRB): ≥ 7.18 µM
CC50 (A-549; SRB): ≥ 7.18 µM
GI50 (IGROV-1): ≥ 7.18 µM
LC50 (concentration causing 50% net cell killing) (IGROV-1): ≥ 7.18 µM
TGI IGROV (IGROV-1): 7.18E−06 Molar
GI50 (LoVo; SRB): ≥ 7.18 µM
TGI LOVO (LoVo; SRB): 7.18E−06 Molar
CC50 (LoVo; SRB): ≥ 7.18 µM
GI50 (IGROV-ET): ≥ 7.18 µM
TGI IGROV-ET (IGROV-ET): 7.18E−06 Molar
CC50 (IGROV-ET): ≥ 7.18 µM
GI50 (PANC-1; SRB): 3.88 µM
TGI PANC-1 (PANC-1; SRB): 7.18E−06 Molar
CC50 (PANC-1; SRB): ≥ 7.18 µM

C/C=C1\NC(=O)[C@H](Cc2ccccc2)NC(=O)[C@@H](C(C)C)NC(=O)[C@@H]([C@@H](C)CC)NC(=O)[C@H](NC(=O)[C@H](NC(=O)[C@H](CCCN)NC(=O)[C@H]2CCCN2C(=O)[C@H](NC(=O)[C@@H](NC(=O)[C@@H](NC(=O)[C@@H](CCC(=O)O)NC(=O)CCCC(C)C)[C@@H](C)O)C(C)C)C(C)C)[C@@H](C)CC)[C@@H](C)OC(=O)[C@H](C(C)C)NC1=O [Compound 39, [D-Glu^13]-KF]
GI50 (LoVo-Dox): 0.889 µM
TGI LOVO-DOX (LoVo-Dox): 1.70E−06 Molar
CC50 (LoVo-Dox): 3.26 µM
GI50 (DU-145): 3.48 µM
LC50 (concentration causing 50% net cell kill) (DU-145): 6.63 µM
TGI DU-145 (DU-145): 6.63E−06 Molar
GI50 (K-562): 1.27 µM
TGI K-562 (K-562): 2.47E−06 Molar
CC50 (K-562): 4.82 µM
GI50 (SK-MEL-28): 3.39 µM
TGI MEL-28 (SK-MEL-28): 6.63E−06 Molar
CC50 (SK-MEL-28): 6.63 µM
GI50 (HeLa-APL): 2.75 µM
TGI HELA-APL (HeLa-APL): 6.63E−06 Molar
CC50 (HeLa-APL): 6.63 µM
TGI HT-29 (HT-29): 2.16E−06 Molar
GI50 (HT-29): 1.2 µM
CC50 (HT-29): 3.87 µM
GI50 (HeLa): 4.18 µM
TGI HELA (HeLa): 6.63E−06 Molar
CC50 (HeLa): 6.63 µM
TGI A-549 (A-549): 6.63E−06 Molar
GI50 (A-549): 4.41 µM
CC50 (A-549): 6.63 µM
GI50 (IGROV-1): 1.33 µM
LC50 (concentration causing 50% net cell killing) (IGROV-1): 4.11 µM
TGI IGROV (IGROV-1): 2.33E−06 Molar
GI50 (LoVo): 0.889 µM
TGI LOVO (LoVo): 1.72E−06 Molar
CC50 (LoVo): 3.34 µM
GI50 (IGROV-ET): 1.29 µM
TGI IGROV-ET (IGROV-ET): 2.29E−06 Molar
CC50 (IGROV-ET): 4.09 µM
GI50 (PANC-1): 4.1 µM
TGI PANC-1 (PANC-1): 6.63E−06 Molar
CC50 (PANC-1): 6.63 µM
